Entries after “also recorded” stand apart in the source; their conditions may differ. Where no end group is shown, it is not given here. The star is where a group is joined. TAT = PTD (protein transduction domain) peptide fused to the peptide; Myristoyl = CCCCCCCCCCCCCC(=O)*
How the values were obtained:
[1] = test system: cerebellar granule neurons; experiment: Fluorescence Ca2+ imaging (Oregon-green 488BAPTA-1 and Fura Red); format: cell-based; conditions: p7 rat cerebellar granule neurons
[2] = test system: cerebellar granule neurons from P7 rats; experiment: Neurite outgrowth assay, cerebellar neurons; format: cell-based, rat; conditions: P7 rat cerebellar granule neurons
DRG neurons = experiment: Neurite outgrowth assay, DRG neurons; format: cell-based, mice
p75 [3] = molecular target: T1, p75 (Homo sapiens, UniProt P08138); experiment: Co-precipitation of p75 and Rho GDI with purified recombinant proteins; format: binding; conditions: 1 μM GST-Rho GDI and Pep5 at the indicated concentrations
T1 construct: host or cells: 293T cells (p75)
T1 sequence (P08138 29-427): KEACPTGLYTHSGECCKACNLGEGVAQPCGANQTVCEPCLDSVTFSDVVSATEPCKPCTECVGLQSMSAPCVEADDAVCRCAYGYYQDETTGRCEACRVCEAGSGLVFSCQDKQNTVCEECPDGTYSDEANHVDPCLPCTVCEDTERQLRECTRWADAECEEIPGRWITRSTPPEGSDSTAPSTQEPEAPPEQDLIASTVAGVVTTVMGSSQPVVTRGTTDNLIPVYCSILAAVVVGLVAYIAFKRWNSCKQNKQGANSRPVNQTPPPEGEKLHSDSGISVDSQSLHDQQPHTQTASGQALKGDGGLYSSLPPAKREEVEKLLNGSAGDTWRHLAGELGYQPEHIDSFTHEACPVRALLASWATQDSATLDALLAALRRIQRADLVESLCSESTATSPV

hippocampal neurons = format: cell-based; conditions: data not shown
[4] = test system: superior cervical ganglion neurons; format: cell-based; conditions: 100 ng/ml BDNF; data not shown
p75 [5] = molecular target: T2, p75 (Mus musculus, UniProt Q9Z0W1); experiment: Co-precipitation of p75 with recombinant GST-Pep5; format: binding; conditions: lysates prepared from post-natal cerebellum
T2 construct: was incubated with lysates prepared from post-natal cerebellum that abundantly express p75; from tissue; host or cells: post-natal cerebellum
T2 sequence (Q9Z0W1 32-427): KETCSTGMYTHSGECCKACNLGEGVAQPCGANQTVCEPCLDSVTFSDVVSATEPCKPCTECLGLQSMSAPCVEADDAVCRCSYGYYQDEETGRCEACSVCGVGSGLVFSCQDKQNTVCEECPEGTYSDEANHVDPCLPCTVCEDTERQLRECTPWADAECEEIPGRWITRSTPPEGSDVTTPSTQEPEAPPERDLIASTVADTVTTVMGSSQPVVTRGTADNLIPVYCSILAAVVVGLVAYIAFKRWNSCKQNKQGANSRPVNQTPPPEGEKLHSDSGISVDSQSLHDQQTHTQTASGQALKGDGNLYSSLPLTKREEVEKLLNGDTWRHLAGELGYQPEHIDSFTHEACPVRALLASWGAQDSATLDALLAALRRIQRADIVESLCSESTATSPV
Description: As all the myelin-derived inhibitors of axonal regeneration identified so far act on neurons through p75, intervening with p75 signaling after injury to the central nervous system may alleviate myelin-dependent inhibition of axonal regeneration. […] The specific peptide ligand to the p75 HD was previously obtained from a combinatorial library (Ilag, L. L. et al., Biochem Biophys Res Commun. 255, 104-109 (1999)). This ligand is a 15 amino acid residue peptide (Pep5; […] (SEQ ID NO: 2)) and the binding site was mapped by nuclear magnetic resonance spectroscopy onto a hydrophobic patch framed by helices 5 and 6. […] The present inventors first confirmed whether p75 associates with Pep5. Glutathione S-transferase-fusion protein containing Pep5 (GST-Pep5) was incubated with lysates prepared from post-natal cerebellum that abundantly express p75. […] Therefore, Pep5 has a potential to disrupt the signal mediated by p75 in vitro. As the peptide ligand must gain entry into the cell if it is to act directly on the p75 HD in vivo, the present inventors generated Pep5 fused with the amino-terminal 11 amino acid protein transduction domain (PTD domain) from the human immunodeficiency virus protein, TAT (TAT-Pep5) (Schwarze, S. R., Ho, A., Vocero-Akbani, A. & Dowdy, S. F., Science 285, 1569-1572 (1999)). […] Thus, Pep5 may be used as an inhibitor of Rho GDI association with p75.

DRG neurons from P1 rats = experiment: Neurite outgrowth assay, dissociated DRG neurons; format: cell-based, rat
[6] = test system: E12 chick dorsal root ganglia explants; experiment: Growth cone collapse assay; format: cell-based; conditions: chick E12 DRG explants; myelin 0.1 to 10 ng/μl
Method: Explants of E12 chick dorsal root ganglia were incubated for 24 hours on plastic slides precoated with 100 μg/ml poly-L-lysine, and were treated for 30 minutes with soluble CNS myelin extracts (Sigma) at the indicated concentrations (MAG-Fc (25 μg/ml) or the Nogo peptide (4 μM)). Explants were fixed in 4% (wt/vol) paraformaldehyde, and were stained with fluorescence-labeled phalloidin (Sigma).

RhoA [7] = experiment: Affinity-precipitation of GTP-RhoA; format: cell-based; conditions: P7 rat cerebellar neurons
Method: Cells were lysed in 50 mM Tris, pH 7.5, 1% Triton X-100, 0.5% sodium deoxycholate, 0.1% SDS, 500 mM NaCl, 10 mM MgCl2, with leupeptin and aprotinin, each at 10 μg/ml (Tang S. et al., J. Cell Biol., 138, 1355-1366 (1997)). Cell lysates were clarified by centrifugation at 13,000 g at 4° C. for 10 min, and the supernatants were incubated with the 20 μg of GST-Rho binding domain of Rhotekin beads (Upstate Biotechnology) at 4° C. for 45 min. The beads were washed 4 times with washing buffer (50 mM Tris, pH 7.5 containing 1% Triton X-100, 150 mM NaCl, 10 mM MgCl2, 10 μg/ml leupeptin, and 10 μg/ml aprotinin). Bound Rho proteins were detected by Western blotting using a monoclonal antibody against RhoA (Santa Cruz Biotechnology).
To address this, we measured RhoA activity in the neurons. Using the RhoA-binding domain of the effector protein Rhotekin (Ren, X. D. et al., EMBO J., 18, 578-585 (1999)), the GTP-bound form of RhoA can be affinity-precipitated. […] The PKC inhibitor had no effect on the Rho activity induced by MAG-Fc or the Nogo peptide. Thus, promotion of neurite outgrowth of the cerebellar neurons by inhibition of PKC was not mediated by the block of RhoA activation, showing that PKC is not upstream of RhoA.

nerve regeneration = experiment: Similar experiments with modified amino acid agents (Example 2-8)
Method: Similar experiments were carried out using Pep5 in which alanine was added to the C terminus of the sequence (SEQ ID NO: 2), antibodies for the extracellular domain of p75, and p75 in which alanine was replaced with valine at amino acid 423 in positions 273-427 of SEQ ID NO: 4.

cerebellar neurons = experiment: Neurite outgrowth assay, post-natal cerebellar neurons; format: cell-based, mice; conditions: post-natal cerebellar neurons
RhoA [8] = experiment: Affinity-precipitation of GTP-RhoA in cerebellar neurons; format: cell-based, mice; conditions: post-natal cerebellar neurons; TAT-Pep5 (1 μM)
Method: 293 cells were transfected with pcDNA3 vectors containing wild type RhoA whose NH2-terminus is tagged with HA (Yamashita, T. et al., Neuron. 24:585-593, 1999) and/or full-length human p75 by lipofection using Lipofectamine 2000 (Gibco BRL). Cerebellar neurons from P9 mice were isolated as described previously (Cai et. al, Neuron, 22:89-101, 1999). Cells were lysed in 50 mM Tris (pH 7.5), 1% Triton X-100, 0.5% sodium deoxycholate, 0.1% SDS, 500 mM NaCl, 10 mM MgCl2, with leupeptin and aprotinin, each at 10 μg/ml. Cell lysates were clarified by centrifugation at 13,000×g at 4° C. for 10 min, and the supernatants were incubated with the 20 μg of GST-Rho binding domain of Rhotekin beads (Upstate Biotech.) at 4° C. for 45 min. The beads were washed 4 times with washing buffer (50 mM Tris (pH 7.5) containing 1% Triton X-100, 150 mM NaCl, 10 mM MgCl2, 10 μg/ml each of leupeptin and aprotinin). Bound Rho proteins were detected by Western blotting using a monoclonal antibody against RhoA (Santa Cruz Biotechnology).
Amino-terminally FLAG-tagged human p75 or the deletion mutants of p75 ICD were cloned into pcDNA3.1 expression plasmid, and were transfected with 293T cells. […] Bound Rho proteins were detected by Western blotting using a monoclonal antibody against RhoA (Santa Cruz Biotechnology).

[9] = molecular target: T3, interaction of p75 with Rho GDI (Mus musculus, UniProt Q9Z0W1); experiment: Co-immunoprecipitation of endogenous p75 and Rho GDI in cerebellar neurons; format: cell-based, mice; conditions: dissociated cerebellar neurons
T3 construct: endogenous in cells; host or cells: primary cerebellar neurons from P9 mice
T3 sequence (Q9Z0W1 32-427): T2 sequence (Q9Z0W1 32-427)

spinal cord [10] = experiment: Spinal cord injury in rats (dorsal half dissected), BBB score; format: in vivo, rat; conditions: 200 g male Wistar rats; continuous osmotic pump to the injured site
spinal cord [11] = experiment: Similar spinal cord experiments in mice (Example 2-7); format: in vivo
[12] = molecular target: catalytic domain of Rho-kinase (GST-CAT) (Bos taurus, UniProt Q28021); experiment: In vitro binding assay of p21 and Rho-kinase (GST-CAT); conditions: GST-CAT; aa 6-553
spinal cord [13] = experiment: Spinal cord injury in rats, p21 / TAT-bound p21, BBB score; format: in vivo, rat; conditions: 200 g male Wistar rats; osmotic pump for 2 weeks; observed from day 2 for 6 weeks

catalytic domain of Rho-kinase (GST-CAT), sequence (Q28021 6-553 limits assumed): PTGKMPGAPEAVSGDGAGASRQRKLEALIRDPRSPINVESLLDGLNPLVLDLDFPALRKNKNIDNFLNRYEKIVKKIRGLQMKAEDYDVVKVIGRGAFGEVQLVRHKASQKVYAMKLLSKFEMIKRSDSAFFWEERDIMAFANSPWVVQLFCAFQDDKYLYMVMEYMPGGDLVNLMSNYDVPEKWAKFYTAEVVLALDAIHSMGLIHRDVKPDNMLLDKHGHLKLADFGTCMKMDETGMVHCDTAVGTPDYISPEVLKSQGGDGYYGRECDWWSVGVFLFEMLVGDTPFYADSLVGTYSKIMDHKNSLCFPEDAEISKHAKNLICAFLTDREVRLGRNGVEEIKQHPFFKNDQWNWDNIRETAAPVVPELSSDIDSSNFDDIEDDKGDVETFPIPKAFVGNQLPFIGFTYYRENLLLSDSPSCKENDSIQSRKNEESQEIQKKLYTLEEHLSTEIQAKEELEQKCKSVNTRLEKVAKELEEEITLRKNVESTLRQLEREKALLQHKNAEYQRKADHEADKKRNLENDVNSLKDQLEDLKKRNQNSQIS

`COc1ccc2c(c1)CC[C@@H]1[C@@H]2CC[C@]2(C)[C@@H](NCCCCCCN3C(=O)C=CC3=O)CC[C@@H]12` [U73122] was tested, and the “effect on Ca2+ elevation induced by MAG” value [1] was “blocked” and the “modulation of neurite outgrowth inhibition by MAG-Fc or the Nogo peptide” value [2] was “neither PTX nor U73122 modulated”.
In the case of CFFRGGFFNHNPRYC [Pep5], the “neurite outgrowth of neurons which express the short isoform but not the full-length p75” value (DRG neurons) is reported as “did not affect the neurite outgrowth”, the “association of p75 with Rho GDI” value (p75 [3]) is reported as “inhibited the association of p75 with Rho GDI dose dependently; also recorded: inhibits the binding of p75 with Rho GDI dose dependently” and the “NGF-induced promotion of the neurite outgrowth” value (hippocampal neurons) is reported as “did not inhibit”. For the same molecule, the “cell death of superior cervical ganglion neurons” value [4] was “did not inhibit”.
For “GST-Pep5: Glutathione S-transferase-fusion protein containing Pep5”, the “co-precipitation of p75” value (p75 [5]) was “revealed the presence of a protein corresponding to p75”.
“PKC inhibitor: cell permeable PKC inhibitor 20-28 (Calbiochem), specific membrane permeable PKC inhibitor peptide (Myristoyl-FARKGALRQ; not fully specified (C-terminus); UniProt P17252 20-28, looked up, fragment)” was tested, and the “neurite outgrowth (substance alone)” value ([2]; MAG-Fc 25 μg/ml, Nogo peptide 4 μM) was “no effect on the growth”, the “modulation of MAG-Fc effect on neurite outgrowth” value (DRG neurons from P1 rats) was “no modulating effect” and the “effect on growth cone collapse mediated by myelin” value [6] was “completely reversed”. For the same molecule, the “effect on Rho activity induced by MAG-Fc or the Nogo peptide” value (RhoA [7]) was “no effect”.
In the case of “Pep5 in which alanine was added to the C terminus: Pep5 in which alanine was added to the C terminus of the sequence (SEQ ID NO: 2) (CFFRGGFFNHNPRYC)”, the nerve regeneration (nerve regeneration) is reported as “nerve regeneration was similarly observed”.
For “TAT-CFFRGGFFNHNPRYC ({TAT}-CFFRGGFFNHNPRYC; cysteine pairing not given here; also: TAT (PTD) sequence not fixed) [TAT-Pep5, Pep5 fused with the amino-terminal 11 amino acid protein transduction domain from HIV TAT]”, the “responsiveness of DRG neurons to MAG (25 μg/ml) and the Nogo peptide (4 μM), neurite outgrowth” value (DRG neurons; added exogenously at 100 nM) was “abolished their responsiveness”, the “inhibitory effect of MAG (25 μg/ml) and the Nogo peptide (4 μM) on neurite outgrowth” value (cerebellar neurons) was “efficiently silenced the inhibitory effect” and the “activation of RhoA induced by MAG-Fc or the Nogo peptide” value (RhoA [8]) was “inhibited the activation of RhoA; also recorded: completely abolishes these effects”. For the same molecule, the “interaction of p75 with Rho GDI induced by MAG-Fc” value [9] was “significantly inhibited; also recorded: diminished”, the “nerve regeneration after spinal cord injury” value (spinal cord [10]) was “nerve regeneration was significantly observed” and the nerve regeneration (spinal cord [11]) was “nerve regeneration was similarly observed”.
“p21: Recombinant full-length p21 (1-164 in SEQ ID NO: 23), cyclin-dependent protein kinase inhibitor” was tested, and the “in vitro interaction with Rho-kinase” value [12] was “bound to each other in vitro” and the “functional recovery after spinal cord injury (BBB score)” value (spinal cord [13]) was “an effect was not sufficiently observed”.
